Source: patent US20150196612A1, “Anti-enterovirus 71 steroidal saponins and their preparation” (Shanghai University of Traditional Chinese Medicine, priority 2014, published 2015)

Assays:
enterovirus 71 (EV71) = assay: anti-EV71 activity (antiviral bioassay); type: cell-based
[1] = cytotoxicity (CC50) of steroidal saponins
[2] = tested on: respiratory syncytial virus (RSV); details: read-out: IC50, inhibitory effects on RSV; cited from earlier work

With `NC(=O)c1ncn([C@@H]2O[C@H](CO)[C@@H](O)[C@H]2O)n1` [Ribavirin, ribavirin, reference compound] the “Selective Index (SI)” value (enterovirus 71 (EV71); FIG. 6) was 2.365.

For `C[C@@H](CC[C@@]1(O)O[C@H]2C[C@H]3[C@@H]4CC[C@@H]5C[C@@H](O[C@@H]6O[C@H](CO)[C@H](O)[C@H](O)[C@H]6O[C@@H]6O[C@H](CO)[C@@H](O)[C@H](O)[C@H]6O)CC[C@]5(C)[C@H]4CC[C@]3(C)[C@H]2[C@@H]1C)CO[C@@H]1O[C@H](CO)[C@@H](O)[C@H](O)[C@H]1O` [compound 2, timosaponin B-II], the “Selective Index (SI)” value (enterovirus 71 (EV71); FIG. 6) was 92.876, the “IC50 as percentage of that of positive control ribavirin” value (enterovirus 71 (EV71); relative to ribavirin) was 1% and the “selectivity index relative to ribavirin's” value (enterovirus 71 (EV71); relative to ribavirin) was “more than 40 times”. For the same molecule, the CC50 [1] was 401 µM.

For `CC1=C(CCC(C)CO[C@@H]2O[C@H](CO)[C@@H](O)[C@H](O)[C@H]2O)O[C@H]2CC3C4CCC5CC(O[C@@H]6O[C@H](CO)[C@H](O)[C@H](O)[C@H]6O[C@@H]6O[C@H](CO)[C@@H](O)[C@H](O)[C@H]6O)CC[C@]5(C)C4CC[C@]3(C)[C@@H]12` (stereo partly drawn) [compound 3, anemarsaponin B], the “anti-EV71 activity of compounds (in words)” value (enterovirus 71 (EV71); FIG. 6) was “completely inactive”.

In the case of `C[C@H]1CC[C@@]2(OC1)O[C@H]1C[C@H]3[C@@H]4CC[C@@H]5C[C@@H](O[C@@H]6O[C@H](CO)[C@H](O)[C@H](O)[C@H]6O[C@@H]6O[C@H](CO)[C@@H](O)[C@H](O)[C@H]6O)CC[C@]5(C)[C@H]4CC[C@]3(C)[C@H]1[C@@H]2C` [compound 7, timosaponin A-III], the IC50 (enterovirus 71 (EV71); FIG. 6, read-out: IC50 (50% inhibitory concentration), anti-EV71) is given as 1.06 µM and the IC50 [2] is given as 1 µM.

In the case of `C[C@H]1CC[C@@]2(OC1)O[C@H]1C[C@H]3[C@@H]4CC[C@@H]5C[C@@H](O)CC[C@]5(C)[C@H]4CC[C@]3(C)[C@H]1[C@@H]2C` [compound 8, Sarsasapogenin, reference compound], the “anti-EV71 activity of compounds (in words)” value (enterovirus 71 (EV71); FIG. 6) is reported as “completely inactive”.
